Source: the NIST ThermoML archive (doi:10.1016/j.jct.2017.08.029)

Assay: wn = mass fraction of the nth substance listed
Details: 100 kPa, Liquid, Direct current cell with electrodes

C=CC[P+](c1ccccc1)(c1ccccc1)c1ccccc1.[Br-] [allyltriphenylphosphonium bromide] + OCCOCCO
electrical conductivity [S/m]
Details | 293.15 K | 303.15 K | 313.15 K | 323.15 K | 333.15 K | 343.15 K
w1 = 0.1842 | 0.0997 | 0.115 | 0.14 | 0.175 | 0.224 | 0.279
w1 = 0.2653 | 0.118 | 0.129 | 0.159 | 0.198 | 0.253 | 0.315
w1 = 0.4745 | 0.137 | 0.148 | 0.177 | 0.222 | 0.274 | 0.339

C=CC[P+](c1ccccc1)(c1ccccc1)c1ccccc1.[Br-] [allyltriphenylphosphonium bromide] + OCCOCCOCCO
electrical conductivity [S/m]
Details | 293.15 K | 303.15 K | 313.15 K | 323.15 K | 333.15 K | 343.15 K
w1 = 0.1375 | 0.037 | 0.0441 | 0.0643 | 0.0881 | 0.116 | 0.149
w1 = 0.2033 | 0.0477 | 0.0632 | 0.0905 | 0.118 | 0.155 | 0.208
w1 = 0.3895 | 0.067 | 0.0805 | 0.112 | 0.147 | 0.193 | 0.244
